What was measured:
CSF1R = biological target: T1, CSF1R (Homo sapiens, UniProt P07333); assay: KINOMEscan; format: binding
T1 construct: purchased Eurofins DiscoverX KINOMEscan
Method in brief: (§1)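 Kd determination: 12-pt half-log series, top 33 μM; 1 h binding, RT; unbound kinase pulled down on immobilized ligand, measured by qPCR.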

PDGFRB = biological target: T2, PDGFRB (Homo sapiens, UniProt P09619); assay: KINOMEscan; format: binding
T2 construct: purchased Eurofins DiscoverX KINOMEscan
Method in brief: as §1

T2 sequence (P09619 33-1106): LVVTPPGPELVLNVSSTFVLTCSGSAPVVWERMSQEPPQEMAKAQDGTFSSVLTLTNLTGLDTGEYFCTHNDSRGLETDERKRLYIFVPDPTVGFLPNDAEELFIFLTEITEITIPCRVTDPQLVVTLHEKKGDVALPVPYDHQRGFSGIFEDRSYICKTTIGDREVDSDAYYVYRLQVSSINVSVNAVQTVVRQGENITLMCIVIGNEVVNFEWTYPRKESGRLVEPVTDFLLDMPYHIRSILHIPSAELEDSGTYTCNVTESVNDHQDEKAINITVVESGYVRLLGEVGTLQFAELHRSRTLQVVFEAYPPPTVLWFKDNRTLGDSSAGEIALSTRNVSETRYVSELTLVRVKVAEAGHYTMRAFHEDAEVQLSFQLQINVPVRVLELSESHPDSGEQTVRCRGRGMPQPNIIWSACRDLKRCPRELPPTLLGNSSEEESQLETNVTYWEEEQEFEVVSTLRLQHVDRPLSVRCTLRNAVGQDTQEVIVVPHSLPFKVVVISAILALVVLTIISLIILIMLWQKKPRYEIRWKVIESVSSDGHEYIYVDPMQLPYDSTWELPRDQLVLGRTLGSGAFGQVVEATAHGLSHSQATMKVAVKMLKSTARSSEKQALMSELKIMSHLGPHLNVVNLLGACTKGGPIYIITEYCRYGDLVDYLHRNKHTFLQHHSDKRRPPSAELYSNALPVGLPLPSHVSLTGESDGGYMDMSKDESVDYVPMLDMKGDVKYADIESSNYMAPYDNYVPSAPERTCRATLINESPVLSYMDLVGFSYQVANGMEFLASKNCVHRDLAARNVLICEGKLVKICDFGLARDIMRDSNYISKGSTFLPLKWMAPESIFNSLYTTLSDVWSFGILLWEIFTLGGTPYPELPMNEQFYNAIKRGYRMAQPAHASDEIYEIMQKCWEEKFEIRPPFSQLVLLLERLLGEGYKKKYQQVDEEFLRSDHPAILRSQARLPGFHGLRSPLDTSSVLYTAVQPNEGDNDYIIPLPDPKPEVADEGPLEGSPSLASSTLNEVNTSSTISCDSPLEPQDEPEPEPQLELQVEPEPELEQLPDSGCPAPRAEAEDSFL
T1 sequence (P07333 20-972): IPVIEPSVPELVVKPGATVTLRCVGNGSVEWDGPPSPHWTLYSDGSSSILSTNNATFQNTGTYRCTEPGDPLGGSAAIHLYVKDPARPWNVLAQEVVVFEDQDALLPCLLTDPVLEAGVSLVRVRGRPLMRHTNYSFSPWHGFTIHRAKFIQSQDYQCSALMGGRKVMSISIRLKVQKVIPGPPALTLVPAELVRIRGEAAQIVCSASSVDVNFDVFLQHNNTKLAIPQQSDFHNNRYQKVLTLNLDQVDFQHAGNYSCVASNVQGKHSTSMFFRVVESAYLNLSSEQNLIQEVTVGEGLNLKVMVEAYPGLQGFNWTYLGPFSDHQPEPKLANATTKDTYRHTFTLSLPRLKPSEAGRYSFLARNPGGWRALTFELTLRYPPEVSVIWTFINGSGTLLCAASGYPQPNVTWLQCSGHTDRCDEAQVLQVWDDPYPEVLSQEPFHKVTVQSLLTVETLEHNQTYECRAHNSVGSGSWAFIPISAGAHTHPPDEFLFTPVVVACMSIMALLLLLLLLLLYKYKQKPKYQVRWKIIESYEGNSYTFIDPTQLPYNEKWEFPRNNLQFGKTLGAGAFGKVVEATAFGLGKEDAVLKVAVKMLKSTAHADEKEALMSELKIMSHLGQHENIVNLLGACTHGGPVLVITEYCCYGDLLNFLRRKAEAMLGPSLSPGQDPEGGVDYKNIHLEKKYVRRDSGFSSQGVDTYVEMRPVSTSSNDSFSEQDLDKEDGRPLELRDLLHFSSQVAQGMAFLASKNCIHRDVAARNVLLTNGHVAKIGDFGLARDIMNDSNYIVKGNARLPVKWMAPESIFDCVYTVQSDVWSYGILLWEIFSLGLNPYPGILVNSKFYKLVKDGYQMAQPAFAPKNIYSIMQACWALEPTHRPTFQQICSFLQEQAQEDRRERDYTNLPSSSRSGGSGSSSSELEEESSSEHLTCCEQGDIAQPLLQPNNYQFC

How did the inhibition at 10 µM (CSF1R) turn out when `O=C1Nc2c(cc([N+](=O)[O-])c3c2CCCC3)C1=NO` [Compound 5d, 3-(Hydroxyimino)-5-nitro-1,3,6,7,8,9-hexahydro-2H-benzo[g]indol-2-one] was run?
The inhibition at 10 µM was 0%.

What about the inhibition at 10 µM (PDGFRB) of the same compound?
Its inhibition at 10 µM is 0%.
